Assay results: patent US20090299044A1 (priority 2006, published 2009)
Bridge positions count the residues as written; N and C are the ends. Peptide text beside a SMILES is read from it.

What was measured:
Assay in all cases: cell-based
human Kv1.3 channel = human Kv1.3 channel (Homo sapiens, UniProt P22001); assay type: cell-based
human Kv1.3 (CHO) = target: T1, human Kv1.3 (CHO) (Homo sapiens, UniProt P22001)
T1 construct: expressed in transfected cells; host or cells: CHO

human Kv1.1 (HEK293) = target: T2, human Kv1.1 (HEK293) (Homo sapiens, UniProt Q09470)
T2 construct: expressed in transfected cells; host or cells: HEK293
T2 sequence (Q09470 whole entry): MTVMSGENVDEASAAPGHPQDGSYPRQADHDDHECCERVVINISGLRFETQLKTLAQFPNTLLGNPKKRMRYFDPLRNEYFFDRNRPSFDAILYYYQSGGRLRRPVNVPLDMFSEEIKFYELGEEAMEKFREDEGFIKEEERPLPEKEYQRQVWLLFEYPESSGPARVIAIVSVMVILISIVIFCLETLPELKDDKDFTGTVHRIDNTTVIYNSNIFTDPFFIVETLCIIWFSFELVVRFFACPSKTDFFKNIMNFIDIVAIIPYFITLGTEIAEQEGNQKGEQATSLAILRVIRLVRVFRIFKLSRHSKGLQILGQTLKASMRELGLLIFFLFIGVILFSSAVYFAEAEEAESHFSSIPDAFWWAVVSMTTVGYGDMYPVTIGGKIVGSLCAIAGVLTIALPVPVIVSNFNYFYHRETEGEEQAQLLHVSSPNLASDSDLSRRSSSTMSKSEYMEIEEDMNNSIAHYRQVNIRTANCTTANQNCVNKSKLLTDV

human Kv1.1 = human Kv1.1 (Homo sapiens, UniProt Q09470); design: expressed in transfected cells; host or cells: HEK293; details: Kv1.1 (IC50, pM)
Sequence of human Kv1.1 (Q09470 whole entry): as above

T1 sequence (P22001 whole entry): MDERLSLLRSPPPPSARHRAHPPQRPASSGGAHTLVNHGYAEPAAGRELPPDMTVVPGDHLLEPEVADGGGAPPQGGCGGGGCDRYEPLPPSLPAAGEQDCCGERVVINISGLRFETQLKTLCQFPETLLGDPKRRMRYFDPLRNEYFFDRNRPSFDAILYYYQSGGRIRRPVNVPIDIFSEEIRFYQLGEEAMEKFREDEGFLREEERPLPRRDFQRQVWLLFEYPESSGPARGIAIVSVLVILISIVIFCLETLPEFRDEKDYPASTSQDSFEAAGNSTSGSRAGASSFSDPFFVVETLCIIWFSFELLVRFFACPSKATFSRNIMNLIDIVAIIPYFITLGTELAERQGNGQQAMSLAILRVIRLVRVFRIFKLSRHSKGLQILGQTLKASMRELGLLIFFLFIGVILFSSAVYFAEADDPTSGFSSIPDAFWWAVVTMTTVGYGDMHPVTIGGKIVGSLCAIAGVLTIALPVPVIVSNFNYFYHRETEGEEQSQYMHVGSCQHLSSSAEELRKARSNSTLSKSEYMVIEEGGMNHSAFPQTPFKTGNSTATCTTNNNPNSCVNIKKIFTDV
Sequence of human Kv1.3 channel (P22001 whole entry): as above

| Compound | fold difference in Kv1.3 potency compared to Fc-L10-OSK1 (human Kv1.3 channel) [fold] | IC50 (human Kv1.3 channel) [nM] | IC50 (human Kv1.3 (CHO)) [nM] | IC50 (human Kv1.1 (HEK293)) [nM] | IC50 (human Kv1.1) [pM] |
| --- | --- | --- | --- | --- | --- |
| Fc-L10-OSK1[K7S]: OSK1-peptibody with lysine to serine substitution at position 7 | 2 | – | – | – | – |
| CC[C@H](C)[C@@H]1NC(=O)[C@H](CCCCN)NC(=O)[C@@H](NC(=O)[C@H](CCCCN)NC(=O)[C@@H](NC(=O)[C@H](CC(N)=O)NC(=O)[C@@H](NC(=O)[C@@H](NC(=O)[C@@H](NC(=O)CN)C(C)C)[C@@H](C)CC)[C@@H](C)CC)C(C)C)CSSC[C@@H]2NC(=O)[C@H](CCCCN)NC(=O)CNC(=O)[C@H](Cc3ccccc3)NC(=O)[C@H](CCCNC(=N)N)NC(=O)[C@H](CCSC)NC(=O)CNC(=O)[C@H](C)NC(=O)[C@H](CCCCN)NC(=O)[C@H](CCCCN)NC(=O)[C@@H]3CSSC[C@@H](C(=O)N[C@H](C(=O)N4CCC[C@H]4C(=O)N[C@@H](CCCCN)C(=O)O)[C@@H](C)O)NC(=O)[C@H](Cc4c[nH]cn4)NC(=O)[C@H](CSSC[C@H](NC(=O)[C@H](CCC(N)=O)NC(=O)[C@H](C)NC(=O)[C@H](CO)NC1=O)C(=O)N[C@@H](CC(C)C)C(=O)N[C@@H](CCC(=O)O)C(=O)N1CCC[C@H]1C(=O)N3)NC(=O)[C@H](CCCCN)NC(=O)CNC(=O)[C@H](CC(N)=O)NC(=O)[C@H](CCSC)NC2=O [R12A] (H-GVIINVKCKISAQCLEPCKKAGMRFGKCMNGKCHCTPK-OH; disulfide 8-28, 14-33, 18-35) | – | 0.025 | 0.39 | 0.0559 | 440 |
| CC[C@H](C)[C@@H]1NC(=O)[C@H](CCCCN)NC(=O)[C@@H](NC(=O)[C@H](CCCCN)NC(=O)[C@@H](NC(=O)[C@H](CC(N)=O)NC(=O)[C@@H](NC(=O)[C@@H](NC(=O)[C@@H](NC(=O)CN)C(C)C)[C@@H](C)CC)[C@@H](C)CC)C(C)C)CSSC[C@@H]2NC(=O)[C@H](CCCCN)NC(=O)CNC(=O)[C@H](Cc3ccccc3)NC(=O)[C@H](CCCNC(=N)N)NC(=O)[C@H](CCSC)NC(=O)CNC(=O)[C@H](C)NC(=O)[C@H](CCCCN)NC(=O)[C@H](CCCCN)NC(=O)[C@@H]3CSSC[C@@H](C(=O)N[C@H](C(=O)N4CCC[C@H]4C(=O)N[C@@H](CCCCN)C(=O)O)[C@@H](C)O)NC(=O)[C@H](CCC(=O)O)NC(=O)[C@H](CSSC[C@H](NC(=O)[C@H](CCC(N)=O)NC(=O)[C@H](CCCNC(=N)N)NC(=O)[C@H](CO)NC1=O)C(=O)N[C@@H](CC(C)C)C(=O)N[C@@H](CCC(=O)O)C(=O)N1CCC[C@H]1C(=O)N3)NC(=O)[C@H](CCCCN)NC(=O)CNC(=O)[C@H](CC(N)=O)NC(=O)[C@H](CCSC)NC2=O [H34E] (H-GVIINVKCKISRQCLEPCKKAGMRFGKCMNGKCECTPK-OH; disulfide 8-28, 14-33, 18-35) | – | 1.32 | 0.33 | 1.69 | 39400 |
| CC[C@H](C)[C@@H]1NC(=O)[C@H](CCCCN)NC(=O)[C@@H](NC(=O)[C@H](CCCCN)NC(=O)[C@@H](NC(=O)[C@H](CC(N)=O)NC(=O)[C@@H](NC(=O)[C@@H](NC(=O)[C@@H](NC(=O)CN)C(C)C)[C@@H](C)CC)[C@@H](C)CC)C(C)C)CSSC[C@@H]2NC(=O)[C@H](CCCCN)NC(=O)CNC(=O)[C@H](Cc3ccccc3)NC(=O)[C@H](CCCNC(=N)N)NC(=O)[C@H](CCSC)NC(=O)CNC(=O)[C@H](C)NC(=O)[C@H](CCCCN)NC(=O)[C@H](CCCCN)NC(=O)[C@@H]3CSSC[C@@H](C(=O)N[C@H](C(=O)N4CCC[C@H]4C(=O)N[C@@H](CCCCN)C(=O)O)[C@@H](C)O)NC(=O)[C@H](Cc4c[nH]cn4)NC(=O)[C@H](CSSC[C@H](NC(=O)[C@H](CCC(N)=O)NC(=O)[C@H](CCCNC(=N)N)NC(=O)[C@H](CO)NC1=O)C(=O)N[C@@H](CC(C)C)C(=O)N[C@@H](CCC(=O)O)C(=O)N1CCC[C@H]1C(=O)N3)NC(=O)[C@H](CCCCN)NC(=O)CNC(=O)[C@H](C)NC(=O)[C@H](CCSC)NC2=O [N30A] (H-GVIINVKCKISRQCLEPCKKAGMRFGKCMAGKCHCTPK-OH; disulfide 8-28, 14-33, 18-35) | – | 0.766 | 0.693 | > 3 | 10200 |
| CC[C@H](C)[C@@H]1NC(=O)[C@H](CCCCN)NC(=O)[C@@H](NC(=O)[C@H](CCCCN)NC(=O)[C@@H](NC(=O)[C@H](CC(N)=O)NC(=O)[C@@H](NC(=O)[C@@H](NC(=O)[C@@H](NC(=O)CN)C(C)C)[C@@H](C)CC)[C@@H](C)CC)C(C)C)CSSC[C@@H]2NC(=O)[C@H](CCCCN)NC(=O)CNC(=O)[C@H](Cc3ccccc3)NC(=O)[C@H](CCCNC(=N)N)NC(=O)[C@H](CCSC)NC(=O)CNC(=O)[C@H](C)NC(=O)[C@H](CCCCN)NC(=O)[C@H](CCCCN)NC(=O)[C@@H]3CSSC[C@@H](C(=O)N[C@H](C(=O)N4CCC[C@H]4C(=O)N[C@@H](CCCCN)C(=O)O)[C@@H](C)O)NC(=O)[C@H](Cc4c[nH]cn4)NC(=O)[C@H](CSSC[C@H](NC(=O)[C@H](CCC(N)=O)NC(=O)[C@H](CCCNC(=N)N)NC(=O)[C@H](CO)NC1=O)C(=O)N[C@@H](CC(C)C)C(=O)N[C@@H](CCC(=O)O)C(=O)N1CCC[C@H]1C(=O)N3)NC(=O)[C@H](CCCCN)NC(=O)CNC(=O)[C@H](CC(N)=O)NC(=O)[C@H](C)NC2=O [M29A] (H-GVIINVKCKISRQCLEPCKKAGMRFGKCANGKCHCTPK-OH; disulfide 8-28, 14-33, 18-35) | – | – | 0.0595 | > 3.33 | 3470 |
| CC[C@H](C)[C@@H]1NC(=O)[C@H](CCCCN)NC(=O)[C@@H](NC(=O)[C@H](CCCCN)NC(=O)[C@@H](NC(=O)[C@H](CC(N)=O)NC(=O)[C@@H](NC(=O)[C@@H](NC(=O)[C@@H](NC(=O)CN)C(C)C)[C@@H](C)CC)[C@@H](C)CC)C(C)C)CSSC[C@@H]2NC(=O)[C@H](CCCCN)NC(=O)CNC(=O)[C@H](Cc3ccccc3)NC(=O)[C@H](CCCNC(=N)N)NC(=O)[C@H](CCSC)NC(=O)CNC(=O)[C@H](C)NC(=O)[C@H](CCCCN)NC(=O)[C@H](CCCCN)NC(=O)[C@@H]3CSSC[C@@H](C(=O)N[C@H](C(=O)N4CCC[C@H]4C(=O)N[C@@H](CCCCN)C(=O)O)[C@@H](C)O)NC(=O)[C@H](Cc4c[nH]cn4)NC(=O)[C@H](CSSC[C@H](NC(=O)[C@H](CCC(=O)O)NC(=O)[C@H](CCCNC(=N)N)NC(=O)[C@H](CO)NC1=O)C(=O)N[C@@H](CC(C)C)C(=O)N[C@@H](CCC(=O)O)C(=O)N1CCC[C@H]1C(=O)N3)NC(=O)[C@H](CCCCN)NC(=O)CNC(=O)[C@H](CC(N)=O)NC(=O)[C@H](CCSC)NC2=O [Q13E] (H-GVIINVKCKISRECLEPCKKAGMRFGKCMNGKCHCTPK-OH; disulfide 8-28, 14-33, 18-35) | – | – | 0.0459 | 0.00628 | – |
| CC[C@H](C)[C@@H]1NC(=O)[C@H](CCCNC(=N)N)NC(=O)[C@@H](NC(=O)[C@H](CCCCN)NC(=O)[C@@H](NC(=O)[C@H](CC(N)=O)NC(=O)[C@@H](NC(=O)[C@@H](NC(=O)[C@@H](NC(=O)CN)C(C)C)[C@@H](C)CC)[C@@H](C)CC)C(C)C)CSSC[C@@H]2NC(=O)[C@H](CCCCN)NC(=O)CNC(=O)[C@H](Cc3ccccc3)NC(=O)[C@H](CCCNC(=N)N)NC(=O)[C@H](CCSC)NC(=O)CNC(=O)[C@H](C)NC(=O)[C@H](CCCCN)NC(=O)[C@H](CCCCN)NC(=O)[C@@H]3CSSC[C@@H](C(=O)N[C@H](C(=O)N4CCC[C@H]4C(=O)N[C@@H](CCCCN)C(=O)O)[C@@H](C)O)NC(=O)[C@H](Cc4c[nH]cn4)NC(=O)[C@H](CSSC[C@H](NC(=O)[C@H](CCC(N)=O)NC(=O)[C@H](CCCNC(=N)N)NC(=O)[C@H](CO)NC1=O)C(=O)N[C@@H](CC(C)C)C(=O)N[C@@H](CCC(=O)O)C(=O)N1CCC[C@H]1C(=O)N3)NC(=O)[C@H](CCCCN)NC(=O)CNC(=O)[C@H](CC(N)=O)NC(=O)[C@H](CCSC)NC2=O [K9R] (H-GVIINVKCRISRQCLEPCKKAGMRFGKCMNGKCHCTPK-OH; disulfide 8-28, 14-33, 18-35) | – | – | 0.012 | 0.00201 | – |
